Data reported in ChEMBL document CHEMBL1122472, “Anticoccidial activity of 1-phenyluracils” (1983).

Tested on: Eimeria tenella
Assay: Minimum effective concentration (MEC) against Eimeria tenella to prevent infection and to maintain zero lesion scores
Assay type: functional
Conditions: read-out: MEC

| SMILES | minimal effective concentration |
| --- | --- |
| Cc1cc(-n2ccc(=O)[nH]c2=O)cc(Cl)c1Sc1ccc(Cl)cc1 | 60 µg/mL |
| Cc1cc(-n2ccc(=O)[nH]c2=O)cc(Cl)c1S(=O)(=O)c1ccc(Cl)cc1 | < 125 µg/mL |
| Cc1cc(C)cc(-n2ccc(=O)[nH]c2=O)c1 | > 250 µg/mL |
| O=c1ccn(-c2cc(Cl)cc(Cl)c2)c(=O)[nH]1 | 125 µg/mL |
| Cc1cc(-n2ccc(=O)[nH]c2=O)cc(C)c1Sc1ccc(Cl)cc1 | 500 µg/mL |
| O=c1ccn(-c2ccc(Oc3ccc(Cl)cc3)c(Cl)c2)c(=O)[nH]1 | > 500 µg/mL |
